Here are results for twelve compounds from patent US20060014729A1, “Compounds and their preparation for the treatment of Alzheimer's disease by inhibiting beta-amyloid peptide production” (priority 2004, published 2006).

For one test, the system named is Aβ42. As to conditions: cited from earlier work.
In another test the test system is secreted Aβ40 and Aβ42. In words: Aβ ELISA in CHO-APP cells treated with compounds. Format: cell-based, hamster (CHO) cells expressing human APP. Conditions: 50 μg/ml, 6 and 24 hours, normalized to full-length APP and vehicle-treated cells. On the procedure:
CHO cells stably transfected with human APP751 (CHO-APP cells) were treated with compounds as described above. The compounds were used at 50 μg/ml for 6 and 24 hours. Levels of secreted Aβ40 and Aβ42 were determined using a commercial Aβ ELISA kit (Biosource) and normalized to cell-associated full-length APP. The relative levels of Aβ40 (white bar) and Aβ42 (black bar) were normalized to values obtained from vehicle-treated cells and are shown as % to control. […] (D10=20(S), 24(R)-epoxydammarane-3β,25-diol; D2=Dammar-24-ene-3β,20(S)-diol; D3=reduction mixture of dammar resin by NaBH4; D5=Dammar resin mixture; D6=dipterocarpol; D7=t-butylhydroperoxide-oxidized products of D3. D8=3-acetyl Dammar-24-ene-3A, 20(S)-diol; D9=3-acetyl 20(S),24(R)-epoxydammarane-3β,25-diol; D10=20(S),24(R)-epoxydammarane-3×, 25-diol; D11=Dammar-24-ene-3×, 20(S)-diol; D12=tetraacetyl 20-hydroxydammar-24-ene-3-yl-glucopyranoside; D13=20-hydroxydammar-24-ene-3-yl-glucopyranoside; D15=20(S), 24(R)-epoxydammarane-3-oxo, 25-ol.
(In general: In an ELISA, binding on a coated surface is turned into a signal by an enzyme label.)

Another test concerns γ-secretase complex. As to conditions: partially purified γ-secretase complex; cited from earlier work.

In the case of `CC(C)=CCC[C@](C)(O)[C@H]1CC[C@]2(C)[C@@H]1[C@H](O)C[C@@H]1[C@@]3(C)CC[C@H](O[C@@H]4O[C@H](CO)[C@@H](O)[C@H](O)[C@H]4O[C@@H]4O[C@H](CO)[C@@H](O)[C@H](O)[C@H]4O)C(C)(C)[C@@H]3CC[C@]12C` [(20S)Rg3], the “production of Aβ42 in mammalian cells” value in the test with Aβ42 (mammalian cells) is reported as “lower the production of Aβ42 in mammalian cells”.
As to “tetraacetyl 20-hydroxydammar-24-ene-3-yl-glucopyranoside [Compound D12]”, the “Aβ-lowering activity (levels of secreted Aβ40 and Aβ42, % to control)” value in the test with secreted Aβ40 and Aβ42 is recorded as “exhibited Aβ-lowering activities”.
On to `CC(C)=CC/C=C(\C)[C@H]1CC[C@]2(C)[C@@H]1[C@H](O)C[C@@H]1[C@@]3(C)CC[C@H](O[C@@H]4O[C@H](CO)[C@@H](O)[C@H](O)[C@H]4O[C@@H]4O[C@H](CO)[C@@H](O)[C@H](O)[C@H]4O)C(C)(C)[C@@H]3CC[C@]12C` [Rg5], for which, in the test with Aβ42 (mammalian cells), the “production of Aβ42 in mammalian cells” value was “lower the production of Aβ42 in mammalian cells”.
Consider `CC(C)=CCC[C@](C)(O[C@@H]1O[C@H](CO)[C@@H](O)[C@H](O)[C@H]1O)[C@H]1CC[C@]2(C)[C@@H]1[C@H](O)C[C@@H]1[C@@]3(C)CC[C@H](O)C(C)(C)[C@@H]3[C@@H](O[C@@H]3O[C@H](CO)[C@@H](O)[C@H](O)[C@H]3O)C[C@]12C` [Rg1], for which the “amyloid-reducing activity in vitro” value in the test on Aβ42 (in vitro) is on record as “no amyloid-reducing activity in vitro”.
For `CC(=O)O[C@H]1CC[C@]2(C)[C@H]3CC[C@@H]4[C@@H]([C@]5(C)CC[C@H](C(C)(C)O)O5)CC[C@@]4(C)[C@]3(C)CC[C@H]2C1(C)C` [Compound D9, 3-acetyl 20(S),24(R)-epoxydammarane-3β,25-diol], the “selective potentiation of Aβ42 production” value (from here on “selective potentiation”) in the test on secreted Aβ40 and Aβ42 is “selectively potentiated Aβ42 production”.
`CC(C)=CCCC(C)(O)C1CC[C@]2(C)C1CCC1[C@@]3(C)CC[C@@H](O)C(C)(C)C3CC[C@]12C` (stereo partly drawn) [Compound D11, Dammar-24-ene-3α,20(S)-diol]: the “Aβ-lowering activity (levels of secreted Aβ40 and Aβ42, % to control)” value in the test on secreted Aβ40 and Aβ42 is given as “exhibited Aβ-lowering activities”.
Consider `CC(C)(O)[C@H]1CC[C@@](C)([C@H]2CC[C@]3(C)[C@@H]2CC[C@@H]2[C@@]4(C)CC[C@@H](O)C(C)(C)[C@@H]4CC[C@]23C)O1` [Compound D10, 20(S),24(R)-epoxydammarane-3 cc, 25-diol], for which, in the test on secreted Aβ40 and Aβ42, the “Aβ-lowering activity (levels of secreted Aβ40 and Aβ42, % to control)” value is “exhibited Aβ-lowering activities”.
Take `CC(C)=CCCC(C)(O)C1CC[C@]2(C)C1CCC1[C@@]3(C)CC[C@H](O)C(C)(C)C3CC[C@]12C` (stereo partly drawn) [Compound D2, Dammar-24-ene-3β,20(S)-diol]: the “selective potentiation” value in the test with secreted Aβ40 and Aβ42 was “selectively potentiated Aβ42 production”.
Take `CC(C)(O)[C@H]1CC[C@@](C)([C@H]2CC[C@]3(C)[C@@H]2CC[C@@H]2[C@@]4(C)CC[C@H](O)C(C)(C)[C@@H]4CC[C@]23C)O1` [Compound D1, 20(S), 24(R)-epoxydammarane-3β, 25-diol]: in the test with secreted Aβ40 and Aβ42, the “selective potentiation” value is “selectively potentiated Aβ42 production”.
On to `CC(C)(O)C1CCC(C)(C2CCC3(C)C2CCC2C4(C)CCC(=O)C(C)(C)C4CCC23C)O1` [Compound D15, 20(S), 24(R)-epoxydammarane-3-oxo, 25-ol], for which, in the test on secreted Aβ40 and Aβ42, the “Aβ-lowering activity (levels of secreted Aβ40 and Aβ42, % to control)” value is listed as “exhibited Aβ-lowering activities”.
As for `C=C(CCC=C(C)C)[C@H]1CC[C@]2(C)[C@@H]1[C@H](O)C[C@@H]1[C@@]3(C)CC[C@H](O[C@@H]4O[C@H](CO)[C@@H](O)[C@H](O)[C@H]4O[C@@H]4O[C@H](CO)[C@@H](O)[C@H](O)[C@H]4O)C(C)(C)[C@@H]3CC[C@]12C` [Rk1], in the test with Aβ42 (mammalian cells), the “production of Aβ42 in mammalian cells” value is listed as “lower the production of Aβ42 in mammalian cells” and the “relative effectiveness in reducing Aβ42 levels” value is “most effective in reducing Aβ42 levels”. For the same compound, the “Aβ42 production in cell-free assay” value with γ-secretase complex is “inhibit the Aβ42 production”.
With `CC(C)=CCC[C@](C)(O)[C@H]1CC[C@]2(C)[C@@H]1CC[C@@H]1[C@@]3(C)CCC(=O)C(C)(C)[C@@H]3CC[C@]12C` [Compound D6, dipterocarpol], in the test on secreted Aβ40 and Aβ42, the “Aβ-lowering activity (levels of secreted Aβ40 and Aβ42, % to control)” value is “exhibited Aβ-lowering activities”.
